This note sets out measurements from USRE50230E1, “Method of treatment of hypoxia inducible factor (HIF)-related conditions” (GRIFOLS WORLDWIDE OPERATIONS LIMITED, priority 2014, dated 2024).

In series [1] the test system is renal proximal tubule epithelial (RPTEC) cells. The experiment in a line: Cell Titer Glow viability assay, RPTEC cells. In kind it is cell-based, human. Conditions: 48 hours. Here is the method:
(§1) Considering the anticipated safety profile of a human plasma protein, toxicity of DFO and transferrins (majority Apo, majority Holo and mixtures) was assessed in primary human kidney cells. The renal proximal tubule epithelial (RPTEC) or cortical epithelial (HRCE) cells were treated with the indicated concentrations of majority ApoTf or DFO for 48 hours (FIG. 11A); and RPTEC or HRCE cells were treated for 72 hrs with 4 mg/mL of majority ApoTf, majority HoloTf, mixtures of transferrin (FIG. 11B). After 48 or 72 hours, cells were subjected to a Cell Titer Glow viability assay. Control cells, untreated cells, were set to a value of 100% viable. The average viability and standard deviations are shown for each treatment condition.

The test system of series [2] is cortical epithelial (HRCE) cells. The experiment in a line: Cell Titer Glow viability assay, HRCE cells. The series is classed as cell-based, human. The note with it: 48 hours. How it is done:
as §1
For orientation: In ATP-based viability assays light output follows the ATP content of the culture.

`CC(=O)N(O)CCCCCNC(=O)CCC(=O)N(O)CCCCCNC(=O)CCC(=O)N(O)CCCCCN` [DFO, deferoxamine, reference compound]: the “toxicity (cell viability)” value in series [1] and in series [2] was “significant toxicity” throughout.
